We go through nine compounds from PubChem BioAssay (NCI).

What all share (assay): DTP human tumour cell line panel, 48 h
Assay [1] has as its system HCT-116 colon.
The subject of assay [2] is HS 578T breast.
Assay [3] has as its system HT29 colon.
For assay [4], the system named is LOX IMVI melanoma.
In assay [5] the test system is M14 melanoma.
For assay [6], the system named is SF-295 CNS.
Assay [7] relates to SNB-75 CNS.
For assay [8], the system named is UACC-257 melanoma.

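Step 1: Grow cells in 96-well plates. Step 2: Expose to compound for 48 hours at 5 concentrations. Step 3: Interpolate endpoints linearly; if unreached, use highest concentration. At the GI50, growth is halved. TGI is the concentration that stops growth completely.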

As for `O=c1c(Oc2ccc(F)cc2F)cc2cnc(NC3CCOCC3)nc2n1C1CC1`, the GI50 (in general, the concentration giving 50% growth inhibition) in assay [1] is more than 25 µM; in assay [2], more than 16.9 µM; in assay [3], more than 25 µM; in assay [4] it was more than 25 µM; in assay [5] it was more than 25 µM; in assay [6], more than 25 µM. Moreover, the GI50 in assay [7] and in assay [8] was more than 25 µM each time. In addition, the TGI in assay [1], in assay [2], in assay [3], in assay [4], in assay [5] and in assay [6] was more than 25 µM each time. The total growth inhibition concentration (TGI) in assay [7] and in assay [8] was more than 25 µM each time.
Regarding `O=C(O)CSc1cc(NS(=O)(=O)c2ccc(Br)cc2)c2ccccc2c1O`, the GI50 in assay [1] was 5.65 µM; in assay [2], 7.65 µM; in assay [3], 18.1 µM; in assay [4] it was 3.14 µM; in assay [5] it was 15.1 µM; in assay [6] it was 16 µM. Moreover, the GI50 in assay [7] is 24 µM; in assay [8], 4.95 µM. Besides, the concentration for total growth inhibition (TGI) (as a rule, the concentration giving total growth inhibition) in assay [1] amounted to 16.2 µM; in assay [2], 80.1 µM; in assay [3], 78.1 µM; in assay [4] it was 12.1 µM; in assay [5], 29.5 µM; in assay [6] it was 30.1 µM. Moreover, the values for the TGI in assay [7] and in assay [8] were 42.4 µM and 12.1 µM, respectively.
Regarding `Oc1c(Br)cc(Cl)cc1C(c1cc(Cl)cc(Br)c1O)C(Cl)(Cl)Cl`, the GI50 in assay [1] was 2.12 µM; in assay [2], 2.46 µM; in assay [3] it was 3.26 µM; in assay [4], 2.97 µM; in assay [5] it was 3.74 µM; in assay [6], 1.59 µM. For the same compound, the GI50 was 2.64 µM in assay [7] and 2.33 µM in assay [8]. Further, the TGI in assay [1] is 7.91 µM; in assay [2] it was more than 21.9 µM; in assay [3] it was 10.6 µM; in assay [4] it was 11.4 µM; in assay [5] it was 12.8 µM; in assay [6], 5.29 µM. Further, the TGI in assay [7] was 12.3 µM; in assay [8], 6.57 µM.
Regarding `CN1CCN(C(=O)/C=C/c2ccc([N+](=O)[O-])o2)CC1`, the GI50 was 10.5 µM in assay [1]; 46.5 µM in assay [2]; 9.81 µM in assay [3]; 4.46 µM in assay [4]; 3.11 µM in assay [5]; 27.9 µM in assay [6]. Besides, the GI50 in assay [7] is 21.6 µM; in assay [8], 7.78 µM. Moreover, the TGI in assay [1] was 22.4 µM; in assay [2], more than 100 µM; in assay [3], 37 µM; in assay [4] it was 17 µM; in assay [5], 11.7 µM; in assay [6], more than 100 µM. Moreover, the total growth inhibition concentration (TGI) in assay [7] was found to be 75.8 µM; in assay [8] it was 21.2 µM.
For the compound `CC[C@]12C=CCN3CC[C@@]4(c5ccc(OC)cc5N(C)[C@H]4[C@@](O)(C(=O)OC)[C@@H]1OC(=O)CCCN1CCN(CCCC(=O)O[C@@H]4[C@]5(CC)C=CCN6CC[C@@]7(c8ccc(OC)cc8N(C)[C@H]7[C@@]4(O)C(=O)OC)[C@@H]65)CC1)[C@@H]32`, the GI50 in assay [1] was 0.317 µM; in assay [2], 1.39 µM; in assay [3], 0.324 µM; in assay [4], 0.399 µM; in assay [5] it was 1.87 µM; in assay [6], 1.74 µM. In addition, the figures for the GI50 in assay [7] and in assay [8] were 0.564 µM and 1.96 µM, respectively. Also, the TGI in assay [1] is 1.05 µM; in assay [2], 3.38 µM; in assay [3], 1.2 µM; in assay [4], 1.5 µM; in assay [5], 3.61 µM; in assay [6] it was 3.16 µM. The concentration for total growth inhibition (TGI) is 1.95 µM in assay [7] and 3.69 µM in assay [8].
Turning to `CNCc1cccc2c1OCCOCCOCCNS(=O)(=O)c1ccc(cc1)-c1cnc(N)c(n1)C(=O)N2`, the GI50 in assay [1] was 0.67 µM; in assay [2] it was 0.477 µM; in assay [3] it was 1.31 µM; in assay [4], 0.889 µM; in assay [5] it was 1.31 µM; in assay [6], 1.76 µM. The GI50 in assay [7] was 0.353 µM; in assay [8] it was 1.93 µM. The TGI in assay [1] was 2.67 µM; in assay [2] it was 3.05 µM; in assay [3], 3.76 µM; in assay [4] it was 2.27 µM; in assay [5] it was 2.71 µM; in assay [6], 3.39 µM. For the same compound, the total growth inhibition concentration (TGI) in assay [7] came to 5.26 µM; in assay [8], 4.68 µM.
For `COc1cc(/C=C/c2cc(/C=C/c3ccc(O)c(OC)c3)n(C(=O)Nc3ccc(C)cc3)n2)ccc1O`, the GI50 in assay [1] is 0.296 µM; in assay [2] it was 0.278 µM; in assay [3] it was 1.93 µM; in assay [4] it was 0.501 µM; in assay [5] it was 0.287 µM; in assay [6] it was 1.71 µM. Also, the results for the GI50 in assay [7] and in assay [8] were 0.321 µM and 1.06 µM, respectively. Further, the TGI in assay [1] was found to be 1.53 µM; in assay [2], 0.689 µM; in assay [3] it was 5.19 µM; in assay [4], 2.62 µM; in assay [5] it was 1.05 µM; in assay [6] it was 6.34 µM. Further, the TGI in assay [7] came to 1.36 µM; in assay [8], 4.95 µM.
For the compound `Cc1ccc(-c2nc([P+](c3ccccc3)(c3ccccc3)c3ccccc3)c(N3CCOCC3)o2)cc1`, the GI50 in assay [1] is 0.356 µM; in assay [2], 0.578 µM; in assay [3], 0.357 µM; in assay [4] it was 0.565 µM; in assay [5], 0.543 µM; in assay [6] it was 1.12 µM. Further, the GI50 was 0.194 µM in assay [7] and 0.341 µM in assay [8]. For the same compound, the TGI in assay [1] is 10.8 µM; in assay [2], 9.64 µM; in assay [3] it was 11 µM; in assay [4] it was 2.44 µM; in assay [5] it was 10.4 µM; in assay [6], 4.35 µM. In addition, the TGI in assay [7] is 1.11 µM; in assay [8], 3.42 µM.
For `COc1ccc(-c2c(Nc3ccccn3)nc3c(C4=CCCCC4)c(-c4ccccc4)[nH]n3c2=O)cc1`, the GI50 in assay [1] is 1.32 µM; in assay [2] it was 3.32 µM; in assay [3] it was 2.62 µM; in assay [4], 1.8 µM; in assay [5], 1.23 µM; in assay [6], 2.48 µM. Besides, the GI50 in assay [7] is 2.99 µM; in assay [8], 5 µM. For the same compound, the TGI is 11.8 µM in assay [1]; 33.1 µM in assay [2]; more than 100 µM in assay [3]; more than 100 µM in assay [4]; more than 100 µM in assay [5]; 14 µM in assay [6]. In addition, the TGI in assay [7] was determined as 21.6 µM; in assay [8], 66.3 µM.
